Assay results published in patent US20070134688A1, “CALCULATED INDEX OF GENOMIC EXPRESSION OF ESTROGEN RECEPTOR (ER) AND ER-RELATED GENES” (THE BOARD OF REGENTS OF THE UNIVERSITY OF TEXAS SYSTEM, priority 2005, published 2007).

Legend:
ER-positive cancer = details: compared to placebo, cited from earlier work
[1] = system: ER-positive breast cancer; assay: Distant relapse-free survival after adjuvant tamoxifen; type: in vivo, human; details: ER-positive patients on adjuvant tamoxifen
Protocol: Patients and Samples. […] At MDACC, pre-treatment fine needle aspiration (FNA) samples of primary breast cancer were obtained using a 23-gauge needle and the cells from 1-2 passes were collected into a vial containing 1 ml of RNAlater™ solution (Ambion, Austin Tex.) and stored at −80° C. until use, whereas archival frozen samples were evaluated from resected, metastatic, ER-positive breast cancer. All patients signed an informed consent for voluntary participation to collect samples for research. At other institutions, fresh tissue samples of surgically resected primary breast cancer were frozen in OCT compound and stored at −80° C.
Statistical Analysis of Distant relapse-free survival (DRFS). Distant relapse-free survival (DRFS) was defined as the interval from breast surgery until diagnosis of distant metastasis. Covariate effects on distant relapse risk after tamoxifen treatment were evaluated using log-rank test in multivariate Cox proportional hazards models stratified by institution. […] Confidence intervals of the survival estimate were calculated based on the Tsiatis variance estimates of the cumulative log-hazards (Therneau and Grambsch, 2000). […]

N#Cc1ccc(C(c2ccc(C#N)cc2)n2cncn2)cc1 [letrozole]
relative reduction in deaths (ER-positive cancer; after 2.4 years, after 5 years of adjuvant tamoxifen): 24% | absolute difference in recurrence or new primaries (ER-positive cancer; at 2.4 years): 2.2%

CC/C(=C(\c1ccccc1)c1ccc(OCCN(C)C)cc1)c1ccccc1 [tamoxifen]
mean relapse-free survival at 10 years ([1]; SET index<2): 57.1% | mean relapse-free survival at 10 years ([1]; SET index>5): 90.0%
